Values after ≈ are worked out from the molar mass of the structure shown.
How the values were obtained:
[1] = Intrinsic clearance in rat liver microsomes; type: ADME, Microsome; conditions: read-out: CLH
[2] = Lipophilicity of the compound, high-throughput logP using octanol-coated immobilized artificial membranes at pH 7.4; type: physicochemical
[3] = Equilibrium aqueous solubility of the compound in pH 6.8 solution; type: physicochemical; conditions: aqueous pH 6.8 solution
[4] = Distribution coefficient of the compound, high-throughput logD using octanol-buffer at pH 7.4 by LC-MS/MS analysis shake flask method; type: physicochemical
[5] = Inhibition of RORgammat in rat CD4+ T-cells polarized with Th17 cytokine mix assessed as inhibition of IL-17 secretion
Cytochrome P450 3A4 = Cytochrome P450 3A4 (Homo sapiens, UniProt P08684); experiment: Time dependent inhibition of CYP3A4 (unknown origin); type: ADME; set-up: concentration or dose not given beside the values
Cytochrome P450 3A4, sequence (P08684 whole entry): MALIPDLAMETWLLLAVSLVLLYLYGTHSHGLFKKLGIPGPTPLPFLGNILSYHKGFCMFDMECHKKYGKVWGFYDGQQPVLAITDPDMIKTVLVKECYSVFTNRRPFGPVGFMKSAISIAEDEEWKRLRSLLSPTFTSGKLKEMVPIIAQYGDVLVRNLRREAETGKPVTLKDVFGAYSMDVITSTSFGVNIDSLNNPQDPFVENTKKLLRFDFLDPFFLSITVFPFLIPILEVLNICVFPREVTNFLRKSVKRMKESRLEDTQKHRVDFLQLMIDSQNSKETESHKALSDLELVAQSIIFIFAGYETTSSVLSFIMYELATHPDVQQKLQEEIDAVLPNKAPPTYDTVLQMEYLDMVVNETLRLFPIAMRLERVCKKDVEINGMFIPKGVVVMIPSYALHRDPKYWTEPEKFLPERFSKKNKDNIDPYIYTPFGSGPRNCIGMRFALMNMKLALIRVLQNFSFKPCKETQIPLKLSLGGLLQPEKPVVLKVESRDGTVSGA

[6] = Inverse agonist activity at RORgammat in rat whole blood assessed as reduction in Con A/IL-23-stimulated IL-17 secretion after 72 hrs by ELISA
[7] = Terminal half life in Sprague-Dawley rat at 1 mg/kg, iv; type: ADME, organism-based; conditions: in vivo, read-out: beta t1/2 (converted)
[8] = Dose normalized AUC in Sprague-Dawley rat at 1 mg/kg, iv; type: ADME, organism-based; conditions: in vivo
[9] = Volume of distribution at steady state in Sprague-Dawley rat at 1 mg/kg, iv; type: ADME, organism-based; conditions: in vivo, read-out: Vdss
[10] = Clearance in Sprague-Dawley rat at 1 mg/kg, iv; type: ADME, organism-based; conditions: in vivo
[11] = Dose normalized AUC in Sprague-Dawley rat at 3 mg/kg, po; type: ADME, organism-based; conditions: in vivo
[12] = Dose normalized Cmax in Sprague-Dawley rat at 3 mg/kg, po; type: ADME, organism-based; conditions: in vivo
[13] = Tmax in Sprague-Dawley rat at 3 mg/kg, po; type: ADME, organism-based; conditions: in vivo
[14] = Oral bioavailability in Sprague-Dawley rat at 3 mg/kg; type: ADME, organism-based; conditions: in vivo

microsomal CLint [1]	logD [2]	solubility thermodynamic [3]	logD [4]	IC50 [5]	IC50 [6]	Structure (SMILES)	also measured
722 µL/min/mg	6.3	< 4 µM	6.3	–	–	Cc1c(C(F)(F)F)nc(-c2ccc(Cl)o2)n1-c1c(Cl)cccc1Cl	–
–	–	–	2.5	869 nM	696 nM	Cc1c(C(F)(F)F)nc(-c2ccc(Cl)o2)n1-c1c(Cl)ccc(N2CC(CC(=O)O)C2)c1Cl	K (Cytochrome P450 3A4): > 0.1 min⁻¹
693 µL/min/mg	> 6.9	< 4 µM	> 6.9	325 nM	294 nM	Cc1c(CC(C)C)nc(-c2ccco2)n1-c1c(Cl)cccc1Cl	–
153 µL/min/mg	2	350 µM (≈ 111 µg/mL)	2	–	–	CC(C)Cc1cn(-c2c(C#N)cccc2C#N)c(-c2cnco2)n1	–
33 µL/min/mg	1.1	> 1000 µM	1.1	–	–	N#Cc1cccc(C#N)c1-n1cc(C2CC2)nc1-c1cnco1	–
56 µL/min/mg	2.4	> 1000 µM	2.4	1690 nM	4510 nM	Cc1c(C(F)(F)F)nc(-c2ccc(Cl)o2)n1-c1c(Cl)ccc(N2CC(C(=O)O)C2)c1Cl (single isomer, unassigned; atropisomer)	half-life [7]: 276 min; K (Cytochrome P450 3A4): 0.047 min⁻¹; AUC/dose [8]: 1179 nM·h; Vd [9]: 4 L/kg; clearance [10]: 30 mL/min/kg; AUC/dose [11]: 945 nM·h; Cmax/dose [12]: 181 nM; Tmax [13]: 78 min; bioavailability [14]: 80%
–	–	–	3.2	306 nM	79 nM	Cc1c(C2(C(F)(F)F)CC2)nc(-c2ccc(Cl)o2)n1-c1c(Cl)ccc(NCC(C)(C)C(=O)O)c1Cl (single isomer, unassigned; atropisomer)	K (Cytochrome P450 3A4): 0.011 min⁻¹
49 µL/min/mg	2.5	> 1000 µM	2.5	–	–	Cc1c(C(F)(F)F)nc(-c2ccc(Cl)o2)n1-c1c(Cl)ccc(N2CC(c3nnn[nH]3)C2)c1Cl	–
222 µL/min/mg	3	690 µM (≈ 333 µg/mL)	3	–	–	Cc1c(CC(C)C)nc(-c2ccc(Cl)o2)n1-c1c(Cl)ccc(N2CC(C(=O)O)C2)c1Cl (single isomer, unassigned; atropisomer)	half-life [7]: 12 min; AUC/dose [8]: 156 nM·h; Vd [9]: 3.6 L/kg; clearance [10]: 228 mL/min/kg; AUC/dose [11]: 70 nM·h; Cmax/dose [12]: 166 nM; Tmax [13]: 36 min; bioavailability [14]: 45%
169 µL/min/mg	4.9	40 µM (≈ 19.7 µg/mL)	4.9	–	–	Cc1c(C(F)(F)F)nc(-c2ccc(Cl)o2)n1-c1c(Cl)ccc(N2CC(C(N)=O)C2)c1Cl (single isomer, unassigned; atropisomer)	–
–	> 6.9	–	–	56 nM	82 nM	Cc1c(Cc2ccccc2)nc(-c2ccco2)n1-c1c(Cl)cccc1Cl	–

Structure (SMILES)	microsomal CLint [1]	logD [2]	solubility thermodynamic [3]	logD [4]	IC50 [5]	IC50 [6]	also measured
CC(C)OC(=O)[C@H](C)N(C(=O)c1ccco1)c1c(Cl)cccc1Cl	–	4.1	–	–	–	–	–
CCOC(=O)C(C)N(C(=O)c1cccs1)c1c(C)cccc1Cl (racemic)	–	3.6	–	–	–	–	–
